# Data reported in patent publication US20070179161A1, “Pyrazolopyrimidine compounds and their use in medicine” (VERNALIS (CAMBRIDGE) LIMITED., priority 2003, published 2007).
# Where a name gives a salt, the structure may show the parent alone.
# Columns and labels:
# Format in all cases: biochemical
# [1] = molecular target: CDK-2 enzyme, complexed with cyclin A (Homo sapiens, UniProt P24941); experiment: CDK2 enzyme inhibition assay (33P phosphorylation of peptide […], filter plate); details: CDK-2/cyclin A, 0.1 mM ATP, 40 min at 30° C.
# Description: (§1) The assay mixture containing the inhibitor and CDK-2 enzyme, complexed with cyclin A (0.4 U/ml) was mixed together in a microtiter plate in a final volume of 50 μl and incubated for 40 min at 30° C. The assay mixture contained 0.1 mM unlabeled ATP, 0.01 μCi/μl ^33P-γ-ATP, 0.03 mM peptide, 0.1 mg/ml BSA, 7.5 mM magnesium acetate, 50 mM HEPES-NaOH, pH 7.5. The reaction was stopped by adding 50 μl of 50 mM phosphoric acid. 90 μl of the mixture were transferred to a pre-wetted 96-well Multiscreen MAPHNOB filtration plate (Millipore) and filtered on a vacuum manifold. […] The filtration plate was dried for 10 min at 65° C., scintillant added and phosphorylated peptide quantified in a scintillation counter (Trilux, PerkinElmer)
# HEPES is N-[2-Hydroxyethyl]piperazine-N′-[2-ethanesulfonic acid] BSA is bovine serum albumin.
# GST-Chk1 enzyme = molecular target: T1, GST-Chk1 enzyme (Homo sapiens, UniProt O14757); experiment: Chk1 kinase inhibition assay (33P phosphorylation of Chktide, filter plate); details: 0.01 mM ATP, 11 nM GST-Chk1, 40 minutes at 30° C.; read-out: Chk1 IC50
# T1 sequence (O14757 1-476): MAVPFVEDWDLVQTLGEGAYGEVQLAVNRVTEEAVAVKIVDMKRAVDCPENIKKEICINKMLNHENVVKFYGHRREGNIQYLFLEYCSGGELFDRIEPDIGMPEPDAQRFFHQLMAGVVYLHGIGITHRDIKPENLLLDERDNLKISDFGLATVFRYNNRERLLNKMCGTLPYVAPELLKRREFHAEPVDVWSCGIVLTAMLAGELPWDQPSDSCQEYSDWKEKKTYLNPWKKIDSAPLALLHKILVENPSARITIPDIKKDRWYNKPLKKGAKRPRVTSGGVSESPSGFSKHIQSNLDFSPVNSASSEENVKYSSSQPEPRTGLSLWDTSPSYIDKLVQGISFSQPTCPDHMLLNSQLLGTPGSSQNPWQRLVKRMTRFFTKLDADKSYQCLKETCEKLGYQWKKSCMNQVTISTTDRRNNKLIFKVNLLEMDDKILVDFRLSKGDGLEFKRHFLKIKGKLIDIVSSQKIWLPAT
# Description: The assay mixture containing the inhibitor and Chk1 enzyme was mixed together in a microtiter plate in a final volume of 50 μl and incubated for 40 minutes at 30° C.
# The reaction was stopped by adding 50 μl of 50 mM phosphoric acid. 90 μl of the mixture was transferred to a pre-wetted 96-well Multiscreen MAPHNOB filtration plate (Millipore) and filtered on a vacuum manifold. […] The filtration plate was dried for 10 min at 65° C., scintillant added and phosphorylated peptide quantified in a scintillation counter (Trilux, PerkinElmer)
# PDK1 enzyme = molecular target: T2, PDK1 enzyme (Homo sapiens, UniProt O15530); experiment: PDK1 kinase inhibition assay (33P phosphorylation of synthetic peptide, filter plate); details: 0.01 mM ATP, 60 min at 30° C.; read-out: PDK1 IC50
# T2 sequence (O15530 1-556): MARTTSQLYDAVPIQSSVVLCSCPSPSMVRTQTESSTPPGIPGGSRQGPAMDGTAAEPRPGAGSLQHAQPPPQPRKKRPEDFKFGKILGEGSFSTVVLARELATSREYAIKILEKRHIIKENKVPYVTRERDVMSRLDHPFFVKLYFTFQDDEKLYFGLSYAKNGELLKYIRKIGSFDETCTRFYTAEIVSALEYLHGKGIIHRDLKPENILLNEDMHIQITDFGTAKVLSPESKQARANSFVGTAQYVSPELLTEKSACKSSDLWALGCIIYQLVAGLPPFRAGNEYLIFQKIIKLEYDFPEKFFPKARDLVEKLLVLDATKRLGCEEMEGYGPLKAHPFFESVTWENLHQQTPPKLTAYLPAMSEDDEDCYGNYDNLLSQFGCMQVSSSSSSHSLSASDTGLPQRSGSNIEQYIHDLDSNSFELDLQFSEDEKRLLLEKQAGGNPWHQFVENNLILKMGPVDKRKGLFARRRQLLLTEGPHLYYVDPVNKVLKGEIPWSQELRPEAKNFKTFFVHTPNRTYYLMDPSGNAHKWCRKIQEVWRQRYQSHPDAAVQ
# Description: as §1, with “and PDK1 enzyme” for “and CDK-2 enzyme, complexed with cyclin A (0.4 U/ml)”, “for 60” for “for 40”, “contained 0.01” for “contained 0.1”, “^33P-γ-ATP, 0.075” for “^33P-γ-ATP, 0.03”, “acetate, 0.05M Tris.HCl,” for “acetate, 50 mM HEPES-NaOH,”, “pH 7.5, 0.5% 2-mercaptoethanol.” for “pH 7.5.”
Compound,IC50 [1] [µM],IC50 (GST-Chk1 enzyme) [µM],IC50 (PDK1 enzyme) [µM]
CC(C)c1cnn2c(Nc3ccc(S(=O)(=O)N(C)C)cc3)cc(N(C)CCCN(C)C)nc12 [Example 74],7.27,18.6,> 200
CC(C)c1cnn2c(Nc3ccc(S(=O)(=O)N(C)CCO)cc3)cc(N3CCC(O)CC3)nc12 [Example 48],1.46,> 200,> 200
CNS(=O)(=O)c1ccc(Nc2cc(Cl)nc3c(C(C)C)cnn23)cc1 [Example 46],0.076,> 200,109
CCN(CC)c1cc(Nc2ccc(S(=O)(=O)N(C)CCO)cc2)n2ncc(C(C)C)c2n1 [Example 51],0.259,> 200,> 200
CC(C)c1cnn2c(Nc3ccc(S(=O)(=O)NCCO)cc3)cc(Cl)nc12 [Example 37],1.51,> 200,> 200
NS(=O)(=O)c1ccc(Nc2cc(OC3CCCCC3)nc3ccnn23)cc1 [Example 22],0.3,> 200,70.3
COc1ccc(CNc2cc(-c3ccsc3)nc3ccnn23)cc1 [Example 8],7.55,> 200,> 200
"Fc1ccc(Nc2cc(-c3ccccc3)nc3ccnn23)cc1 [Example 1, 5-Phenyl-7-(4-fluorophenylamino)pyrazolo[1,5-a]pyrimidine hydrochloride]",6.09,> 200,> 200
CC(C)c1cnn2c(Nc3ccc(S(=O)(=O)NCCN(C)C)cc3)cc(Cl)nc12 [Example 77],0.039,> 200,9.49
CC(C)c1cnn2c(Nc3ccc(S(=O)(=O)N(C)C)cc3)cc(OC3CCCN(C)C3)nc12 (stereo not drawn) [Example 75],0.266,6.28,> 200
CC(=O)N[C@H]1CC[C@H](Nc2cc(Nc3ccc(S(=O)(=O)N(C)C)cc3)n3ncc(C(C)C)c3n2)CC1 [Example 79],0.066,> 200,> 200

# Now from value to compound:
IC50 [1] [µM],IC50 (GST-Chk1 enzyme) [µM],IC50 (PDK1 enzyme) [µM],Compound
2.17,4,15.2,CCc1cnn2c(Nc3ccc(S(C)(=O)=O)cc3)cc(N[C@H]3CC[C@@H](N)CC3)nc12 [Example 173]
9.3,> 200,> 200,CC(C)c1cnn2c(Nc3ccc(S(=O)(=O)N(C)C)cc3)cc(C(=O)NCCN3CCOCC3)nc12 [Example 121]
0.142,13,9,CC(C)c1cnn2c(Nc3ccc(S(=O)(=O)N(C)C)cc3)cc(N[C@H]3CC[C@H](NC(N)=O)CC3)nc12 [Example 141]
0.14,> 200,> 200,CC[C@H](CO)Nc1cc(Nc2ccc(S(=O)(=O)N(C)C)cc2)n2ncc(C(C)C)c2n1 [Example 83]
0.03,> 200,> 200,CC(C)c1cnn2c(Nc3ccc(S(=O)(=O)N(C)C)cc3)cc(N[C@H]3CC[C@H](NC(=O)CN(C)C)CC3)nc12 [Example 86]
0.419,> 200,> 200,CCN(CC)C(=O)COc1cc(Nc2ccc(S(=O)(=O)N(C)C)cc2)n2ncc(C(C)C)c2n1 [Example 88]
0.965,> 200,> 200,CC(C)c1cnn2c(Nc3ccc(S(=O)(=O)N(C)C)cc3)cc(NCCCN3CCOCC3)nc12 [Example 102]
